The structures appear in SMILES notation.

A short description of data set [1]: Toxicity in CB17 SCID mouse model xenografted with human LNCaP cells assessed as body weight loss at 60 mg/kg, po bid for 32 days. In kind it is organism-based. The conditions noted are these: in vivo, 768 h, time 32 day.
A short description of data set [2]: Oral bioavailability in Sprague-Dawley rat at 5 mg/kg. The conditions noted are these: in vivo. In kind it is ADME, organism-based.
A short description of data set [3]: Apparent volume of distribution in Sprague-Dawley rat at 5 mg/kg, po. It is filed as ADME, organism-based. Particulars: in vivo.
Data set [4] can be described thus: AUC (0 to t) in Sprague-Dawley rat at 5 mg/kg, po. It is filed as ADME, organism-based. The conditions noted are these: in vivo.
A further data set relates to NIH3T3. The experiment in a line: Antiproliferative activity against mouse NIH3T3 cells incubated for 72 hrs by MTT assay. In kind it is toxicity, cell-based. Particulars: nih3t3, 72 h.
Another data set deals with GES1. The data set is described as follows: Antiproliferative activity against human GES1 cells incubated for 72 hrs by MTT assay. The conditions noted are these: ges1, 72 h, time 72 hrs. It is filed as toxicity, cell-based.
Data set [5] in a line: Clearance in Sprague-Dawley rat at 5 mg/kg, po. In kind it is ADME, organism-based. The conditions noted are these: in vivo.
Data set [6] is described as follows: Toxicity in CB17 SCID mouse model xenografted with human LNCaP cells assessed as signs of toxicity at 60 mg/kg, po bid for 32 days. It is filed as organism-based. Particulars: in vivo, 768 h, time 32 day.
Data set [7] is described as follows: Half life in Sprague-Dawley rat at 5 mg/kg, po. It is filed as ADME, organism-based. Particulars: in vivo.
Data set [8] concerns the target Androgen receptor (Homo sapiens, UniProt P10275, F877L/T878A). The experiment in a line: Antagonist activity at DHT-induced Androgen receptor F876L/[…] mutant in human PC-3 cells transfected with ARR2PB-Luc by Dual-Luciferase Reporter assay. In kind it is cell-based.
Data set [9] can be described thus: Antiproliferative activity against human Chang liver cells incubated for 72 hrs by MTT assay. It is filed as toxicity, cell-based.
Data set [10] in a line: Toxicity in CB17 SCID mouse model xenografted with human LNCaP cells assessed as drug tolerance at 60 mg/kg, po bid for 32 days. It is filed as organism-based. Particulars: in vivo, 768 h, time 32 day.
Data set [11] can be described thus: Clearance in Sprague-Dawley rat at 1 mg/kg, iv. It is filed as ADME, organism-based. Particulars: in vivo.
A short description of data set [12]: Half life in Sprague-Dawley rat at 1 mg/kg, iv. It is filed as ADME, organism-based. The conditions noted are these: in vivo.
The nature of data set [13]: Cmax in Sprague-Dawley rat at 1 mg/kg, iv. The conditions noted are these: in vivo. In kind it is ADME, organism-based.
Data set [14] in a line: AUC (0 to t) in Sprague-Dawley rat at 1 mg/kg, iv. It is filed as ADME, organism-based. Particulars: in vivo.
Data set [15] can be described thus: Apparent volume of distribution in Sprague-Dawley rat at 1 mg/kg, iv. In kind it is ADME, organism-based. Particulars: in vivo, read-out: Vz.
Data set [16] can be described thus: Cmax in Sprague-Dawley rat at 5 mg/kg, po. In kind it is ADME, organism-based. Particulars: in vivo.
The target in data set [17] is Androgen receptor (Homo sapiens, UniProt P10275, W742C). The data set is described as follows: Antagonist activity at DHT-induced Androgen receptor W741C mutant in human PC-3 cells transfected with ARR2PB-Luc by Dual-Luciferase Reporter assay. In kind it is cell-based.
Sequence of Androgen receptor (Homo sapiens, UniProt P10275, W742C) (P10275 whole entry W742C): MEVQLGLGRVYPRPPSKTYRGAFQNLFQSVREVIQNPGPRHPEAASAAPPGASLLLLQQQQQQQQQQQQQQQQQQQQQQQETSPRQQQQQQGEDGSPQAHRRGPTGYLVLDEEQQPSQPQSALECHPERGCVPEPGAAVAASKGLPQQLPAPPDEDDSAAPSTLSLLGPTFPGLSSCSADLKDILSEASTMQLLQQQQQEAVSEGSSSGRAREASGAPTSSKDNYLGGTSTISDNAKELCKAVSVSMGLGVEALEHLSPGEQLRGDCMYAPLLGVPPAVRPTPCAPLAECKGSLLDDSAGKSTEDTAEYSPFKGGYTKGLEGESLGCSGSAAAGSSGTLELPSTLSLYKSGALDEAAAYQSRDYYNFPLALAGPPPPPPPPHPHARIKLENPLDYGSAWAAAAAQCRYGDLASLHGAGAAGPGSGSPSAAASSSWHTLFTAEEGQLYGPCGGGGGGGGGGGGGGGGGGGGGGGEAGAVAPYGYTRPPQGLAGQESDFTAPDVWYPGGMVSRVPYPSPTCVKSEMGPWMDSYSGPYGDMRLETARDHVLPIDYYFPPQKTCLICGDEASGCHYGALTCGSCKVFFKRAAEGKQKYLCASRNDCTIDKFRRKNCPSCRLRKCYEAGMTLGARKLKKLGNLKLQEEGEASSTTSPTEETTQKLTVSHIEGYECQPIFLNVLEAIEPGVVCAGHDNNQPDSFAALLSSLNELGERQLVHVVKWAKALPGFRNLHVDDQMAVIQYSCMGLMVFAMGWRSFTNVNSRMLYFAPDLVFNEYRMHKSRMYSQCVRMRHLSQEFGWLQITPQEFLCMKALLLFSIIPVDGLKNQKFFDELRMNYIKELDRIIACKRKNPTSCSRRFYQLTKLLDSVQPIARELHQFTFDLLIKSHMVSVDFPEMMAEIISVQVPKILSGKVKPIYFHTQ
Data set [18] concerns the target T1, Androgen receptor (Homo sapiens, UniProt P10275).
T1 sequence (P10275 whole entry): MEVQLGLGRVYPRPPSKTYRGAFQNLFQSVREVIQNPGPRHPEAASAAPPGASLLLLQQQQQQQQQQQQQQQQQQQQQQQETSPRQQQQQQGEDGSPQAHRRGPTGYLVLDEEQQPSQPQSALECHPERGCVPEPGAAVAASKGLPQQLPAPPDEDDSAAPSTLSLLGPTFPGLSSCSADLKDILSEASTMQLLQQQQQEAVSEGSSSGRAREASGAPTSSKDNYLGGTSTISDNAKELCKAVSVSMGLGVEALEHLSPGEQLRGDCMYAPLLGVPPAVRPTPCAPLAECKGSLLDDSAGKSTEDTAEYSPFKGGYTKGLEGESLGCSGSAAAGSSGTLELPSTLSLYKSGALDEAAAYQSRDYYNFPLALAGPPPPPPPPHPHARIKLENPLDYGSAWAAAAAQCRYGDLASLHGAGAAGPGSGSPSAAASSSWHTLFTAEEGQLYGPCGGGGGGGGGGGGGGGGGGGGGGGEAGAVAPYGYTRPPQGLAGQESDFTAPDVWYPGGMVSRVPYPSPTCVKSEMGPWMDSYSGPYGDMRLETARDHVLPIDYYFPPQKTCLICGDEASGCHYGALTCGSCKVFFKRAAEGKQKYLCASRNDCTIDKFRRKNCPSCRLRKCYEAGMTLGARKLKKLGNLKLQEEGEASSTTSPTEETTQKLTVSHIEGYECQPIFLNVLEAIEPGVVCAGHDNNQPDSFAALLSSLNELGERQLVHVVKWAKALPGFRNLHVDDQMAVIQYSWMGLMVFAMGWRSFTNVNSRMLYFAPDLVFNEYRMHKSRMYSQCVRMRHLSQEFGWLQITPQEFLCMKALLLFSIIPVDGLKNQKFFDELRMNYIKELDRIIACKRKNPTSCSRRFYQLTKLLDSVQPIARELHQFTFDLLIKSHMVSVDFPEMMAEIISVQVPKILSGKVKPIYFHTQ
The experiment in a line: Antagonist activity at DHT-induced Androgen receptor in human LNCaP cells transfected with ARR2PB-eGFP incubated for 3 days. It is filed as cell-based.

Sequence of Androgen receptor (Homo sapiens, UniProt P10275, F877L/T878A) (P10275 whole entry F877L/T878A): as the sequence (P10275 whole entry W742C) above, with C742W, F877L, T878A counted along it

As for `CN(Cc1ccc(F)cc1)c1ccc2c(C(F)(F)F)cc(=O)oc2c1`, the Activity result (in data set [1]; in the data set with NIH3T3; in the data set on GES1; in [6]; in [9]; in [10]) was “Non-Toxic” each time. The bioavailability in [2] came to 66.2%. Besides, in [3], the Vz was determined as 24.6 L/kg. Moreover, the AUC(0-t) came to 1410 ng·h/mL in data set [4] and 426 ng·h/mL in [14]. Further, in data set [5], the apparent clearance (CL/F) is 58.5 mL/min/kg. In addition, the half-life in data set [7] was 4.82 h; in [12], 0.5 h. The IC50 was 0.17 µM against Androgen receptor [8], 0.16 µM on Androgen receptor [17] and 0.051 µM against Androgen receptor [18]. Also, in [11], the clearance is 41 mL/min/kg. Besides, the Cmax is 1060 ng/mL in data set [13] and 353 ng/mL in data set [16]. For the same molecule, in data set [15], the Vd is 1.81 L/kg.

For the origin of these results see ChEMBL document CHEMBL6127118, “Identification of Oral Bioavailable Coumarin Derivatives as Potential AR Antagonists Targeting Prostate Cancer” (J Med Chem, 2024).
